Assay results as given in patent US9611249B2, “1H-indazole-3-carboxamide compounds as glycogen synthase kinase 3 beta inhibitors” (AZIENDE CHIMICHE RIUNITE ANGELINI FRANCESCO A.C.R.A.F. …, priority 2012, dated 2017).

Assays:
[1] = biological target: IGF1R kinase (h) (Homo sapiens (Human), UniProt P08069); assay: Kinase selectivity panel: IGF1R kinase (h); assay type: biochemical; settings: 10 μM in duplicate, read-out: % inhibition of control values
Protocol: (§1) (a) Compounds 1 and 2 were tested against a panel of 60 kinases in order to assess their selectivity. The assays were chosen taking into consideration the diversity of assay families.
(§2) Tested kinases were representative of following kinase sub-families: • protein-serine/threonine kinases; • protein-tyrosine kinases; • other kinases; and • atypical kinases.
(§3) Human recombinant kinases were incubated in the presence of specific peptide substrates plus ATP for different times (10, 15, 30, 60 or 90 minutes) at 22° C. Phosphorylated substrate was detected by LANCE or HTRF technology (CISBIO, MA, USA). The compounds were tested at 10 μM in duplicate.
(§4) The results are expressed as a percentage of inhibition of control specific activity obtained in the presence of the test compounds and are reported in the following Table 5.
(§5) (b) Compounds 3, 8, 29 and 31 were tested against the same panel of 60 kinases under the same conditions described above for compounds 1 and 2.
(§6) The results are expressed as a percent of inhibition of control specific activity obtained in the presence of the test compounds and are reported in the following Table 6.

[2] = biological target: TAOK2 (TAO1) (h) (Homo sapiens (Human), UniProt Q9UL54); assay: Kinase selectivity panel: TAOK2 (TAO1) (h); assay type: biochemical; settings: 10 μM in duplicate, read-out: % inhibition of control values
Protocol: as §1, §2, §3, §4, §5, §6

[3] = biological target: PKCgamma (h) (Homo sapiens (Human), UniProt P05129); assay: Kinase selectivity panel: PKCgamma (h); assay type: biochemical; settings: 10 μM in duplicate, read-out: % inhibition of control values
Protocol: as §1, §2, §3, §4, §5, §6

[4] = biological target: Ret kinase (h) (Homo sapiens (Human), UniProt P07949); assay: Kinase selectivity panel: Ret kinase (h); assay type: biochemical; settings: 10 μM in duplicate, read-out: % inhibition of control values
Protocol: as §1, §2, §3, §4, §5, §6

[5] = biological target: Pim2 kinase (h) (Homo sapiens (Human), UniProt Q9P1W9); assay: Kinase selectivity panel: Pim2 kinase (h); assay type: biochemical; settings: 10 μM in duplicate, read-out: % inhibition of control values
Protocol: as §1, §2, §3, §4, §5, §6

[6] = biological target: TRKA (h) (Homo sapiens (Human), UniProt P04629); assay: Kinase selectivity panel: TRKA (h); assay type: biochemical; settings: 10 μM in duplicate, read-out: % inhibition of control values
Sequence of TRKA (h) (P04629 33-796): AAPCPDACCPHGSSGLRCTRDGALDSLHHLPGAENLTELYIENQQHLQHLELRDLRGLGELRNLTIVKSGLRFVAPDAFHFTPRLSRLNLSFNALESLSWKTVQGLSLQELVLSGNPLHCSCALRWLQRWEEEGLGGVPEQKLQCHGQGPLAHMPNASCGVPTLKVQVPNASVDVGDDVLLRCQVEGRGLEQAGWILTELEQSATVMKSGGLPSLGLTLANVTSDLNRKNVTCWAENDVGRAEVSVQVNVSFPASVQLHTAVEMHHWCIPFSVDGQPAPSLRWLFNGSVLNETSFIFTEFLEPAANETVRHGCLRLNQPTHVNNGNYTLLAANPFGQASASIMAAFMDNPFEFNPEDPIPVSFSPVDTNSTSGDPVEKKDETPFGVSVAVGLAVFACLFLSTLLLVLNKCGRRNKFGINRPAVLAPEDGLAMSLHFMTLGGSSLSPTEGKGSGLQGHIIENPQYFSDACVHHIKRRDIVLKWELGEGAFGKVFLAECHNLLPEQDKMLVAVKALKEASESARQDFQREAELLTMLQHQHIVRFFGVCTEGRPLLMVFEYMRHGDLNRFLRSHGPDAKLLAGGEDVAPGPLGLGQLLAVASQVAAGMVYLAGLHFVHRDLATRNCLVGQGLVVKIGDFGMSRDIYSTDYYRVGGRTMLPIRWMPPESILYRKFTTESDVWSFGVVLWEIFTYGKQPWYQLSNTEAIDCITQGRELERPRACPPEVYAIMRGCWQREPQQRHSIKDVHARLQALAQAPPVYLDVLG
Protocol: as §1, §2, §3, §4, §5, §6

[7] = biological target: HGK (h) (MAP4K4) (Homo sapiens (Human), UniProt O95819); assay: Kinase selectivity panel: HGK (h) (MAP4K4); assay type: biochemical; settings: 10 μM in duplicate, read-out: % inhibition of control values
Protocol: as §1, §2, §3, §4, §5, §6

[8] = biological target: DAPK1 (h) (Homo sapiens (Human), UniProt P53355); assay: Kinase selectivity panel: DAPK1 (h); assay type: biochemical; settings: 10 μM in duplicate, read-out: % inhibition of control values
Protocol: as §1, §2, §3, §4, §5, §6

[9] = biological target: MAPKAPK2 (h) (Homo sapiens (Human), UniProt P49137); assay: Kinase selectivity panel: MAPKAPK2 (h); assay type: biochemical; settings: 10 μM in duplicate, read-out: % inhibition of control values
Sequence of MAPKAPK2 (h) (P49137 whole entry): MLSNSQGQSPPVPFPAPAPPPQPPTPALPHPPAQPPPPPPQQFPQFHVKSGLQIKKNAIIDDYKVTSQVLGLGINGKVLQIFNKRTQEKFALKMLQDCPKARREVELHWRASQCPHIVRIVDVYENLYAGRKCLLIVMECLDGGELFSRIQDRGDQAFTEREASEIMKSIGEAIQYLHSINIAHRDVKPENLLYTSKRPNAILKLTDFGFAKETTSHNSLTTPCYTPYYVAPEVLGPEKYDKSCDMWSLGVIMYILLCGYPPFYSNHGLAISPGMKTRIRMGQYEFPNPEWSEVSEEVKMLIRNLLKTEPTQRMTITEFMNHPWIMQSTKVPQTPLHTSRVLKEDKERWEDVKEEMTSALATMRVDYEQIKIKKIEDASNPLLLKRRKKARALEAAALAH
Protocol: as §1, §2, §3, §4, §5, §6

[10] = biological target: ERK2 (h) (P42mapk) (Homo sapiens (Human), UniProt P28482); assay: Kinase selectivity panel: ERK2 (h) (P42mapk); assay type: biochemical; settings: 10 μM in duplicate, read-out: % inhibition of control values
Sequence of ERK2 (h) (P42mapk) (P28482 whole entry): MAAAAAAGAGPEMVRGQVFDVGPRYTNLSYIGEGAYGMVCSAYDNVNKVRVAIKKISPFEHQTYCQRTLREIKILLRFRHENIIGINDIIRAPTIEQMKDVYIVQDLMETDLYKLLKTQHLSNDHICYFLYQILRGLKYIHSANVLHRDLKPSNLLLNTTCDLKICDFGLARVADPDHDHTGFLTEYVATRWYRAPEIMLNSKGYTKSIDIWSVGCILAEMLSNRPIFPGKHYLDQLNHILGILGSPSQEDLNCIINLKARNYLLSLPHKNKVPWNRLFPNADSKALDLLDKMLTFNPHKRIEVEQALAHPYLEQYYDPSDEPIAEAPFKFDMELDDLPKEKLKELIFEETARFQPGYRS
Protocol: as §1, §2, §3, §4, §5, §6

[11] = biological target: IKKepsilon (h) (IKBKE) (Homo sapiens (Human), UniProt Q14164); assay: Kinase selectivity panel: IKKepsilon (h) (IKBKE); assay type: biochemical; settings: 10 μM in duplicate, read-out: % inhibition of control values
Protocol: as §1, §2, §3, §4, §5, §6

[12] = biological target: CK1alpha (h) (Homo sapiens (Human), UniProt P48729); assay: Kinase selectivity panel: CK1alpha (h); assay type: biochemical; settings: 10 μM in duplicate, read-out: % inhibition of control values
Protocol: as §1, §2, §3, §4, §5, §6

[13] = biological target: Fyn kinase (h) (Homo sapiens (Human), UniProt P06241); assay: Kinase selectivity panel: Fyn kinase (h); assay type: biochemical; settings: 10 μM in duplicate, read-out: % inhibition of control values
Protocol: as §1, §2, §3, §4, §5, §6

[14] = biological target: FGFR4 kinase (h) (Homo sapiens (Human), UniProt P22455); assay: Kinase selectivity panel: FGFR4 kinase (h); assay type: biochemical; settings: 10 μM in duplicate, read-out: % inhibition of control values
Protocol: as §1, §2, §3, §4, §5, §6

[15] = biological target: PAK1 (h) (Homo sapiens (Human), UniProt Q13153); assay: Kinase selectivity panel: PAK1 (h); assay type: biochemical; settings: 10 μM in duplicate, read-out: % inhibition of control values
Protocol: as §1, §2, §3, §4, §5, §6

[16] = biological target: p38alpha kinase (h) (Homo sapiens (Human), UniProt Q16539); assay: Kinase selectivity panel: p38alpha kinase (h); assay type: biochemical; settings: 10 μM in duplicate, read-out: % inhibition of control values
Protocol: as §1, §2, §3, §4, §5, §6

[17] = biological target: CaMK4 (h) (Homo sapiens (Human), UniProt Q16566); assay: Kinase selectivity panel: CaMK4 (h); assay type: biochemical; settings: 10 μM in duplicate, read-out: % inhibition of control values
Protocol: as §1, §2, §3, §4, §5, §6

[18] = biological target: PCTAIRE1 kinase (h) (Homo sapiens (Human), UniProt Q00536); assay: Kinase selectivity panel: PCTAIRE1 kinase (h); assay type: biochemical; settings: 10 μM in duplicate, read-out: % inhibition of control values
Sequence of PCTAIRE1 kinase (h) (Q00536 whole entry): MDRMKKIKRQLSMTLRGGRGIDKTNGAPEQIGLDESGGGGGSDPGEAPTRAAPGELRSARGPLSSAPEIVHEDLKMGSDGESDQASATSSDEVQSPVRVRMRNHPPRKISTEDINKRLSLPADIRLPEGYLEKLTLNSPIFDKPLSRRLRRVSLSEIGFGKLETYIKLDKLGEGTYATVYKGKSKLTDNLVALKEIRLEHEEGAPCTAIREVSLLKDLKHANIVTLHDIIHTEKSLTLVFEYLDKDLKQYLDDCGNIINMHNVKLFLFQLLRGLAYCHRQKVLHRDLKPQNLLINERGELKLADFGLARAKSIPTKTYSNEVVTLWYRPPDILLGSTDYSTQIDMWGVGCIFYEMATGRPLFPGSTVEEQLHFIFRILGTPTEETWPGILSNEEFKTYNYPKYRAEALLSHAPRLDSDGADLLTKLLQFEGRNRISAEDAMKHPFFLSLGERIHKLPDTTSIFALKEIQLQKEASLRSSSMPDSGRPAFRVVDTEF
Protocol: as §1, §2, §3, §4, §5, §6

[19] = biological target: AurA/Aur2 kinase (h) (Homo sapiens (Human), UniProt O14965); assay: Kinase selectivity panel: AurA/Aur2 kinase (h); assay type: biochemical; settings: 10 μM in duplicate, read-out: % inhibition of control values
Protocol: as §1, §2, §3, §4, §5, §6

[20] = biological target: MNK2 (h) (Homo sapiens (Human), UniProt Q9HBH9); assay: Kinase selectivity panel: MNK2 (h); assay type: biochemical; settings: 10 μM in duplicate, read-out: % inhibition of control values
Protocol: as §1, §2, §3, §4, §5, §6

[21] = biological target: EphB2 kinase (h) (Homo sapiens (Human), UniProt P29323); assay: Kinase selectivity panel: EphB2 kinase (h); assay type: biochemical; settings: 10 μM in duplicate, read-out: % inhibition of control values
Protocol: as §1, §2, §3, §4, §5, §6

[22] = biological target: CDC2/CDK1 (h) (cycB) (Homo sapiens (Human), UniProt P06493); assay: Kinase selectivity panel: CDC2/CDK1 (h) (cycB); assay type: biochemical; settings: 10 μM in duplicate, read-out: % inhibition of control values
Protocol: as §1, §2, §3, §4, §5, §6

[23] = biological target: GSK3beta (h) (Homo sapiens (Human), UniProt P49841); assay: Kinase selectivity panel: GSK3beta (h); assay type: biochemical; settings: GSK3beta (h); 10 μM in duplicate; read-out: % inhibition of control values
Protocol: as §1, §2, §3, §4, §6

[24] = biological target: JAK2 (h) (Homo sapiens (Human), UniProt O60674); assay: Kinase selectivity panel: JAK2 (h); assay type: biochemical; settings: 10 μM in duplicate, read-out: % inhibition of control values
Sequence of JAK2 (h) (O60674 whole entry): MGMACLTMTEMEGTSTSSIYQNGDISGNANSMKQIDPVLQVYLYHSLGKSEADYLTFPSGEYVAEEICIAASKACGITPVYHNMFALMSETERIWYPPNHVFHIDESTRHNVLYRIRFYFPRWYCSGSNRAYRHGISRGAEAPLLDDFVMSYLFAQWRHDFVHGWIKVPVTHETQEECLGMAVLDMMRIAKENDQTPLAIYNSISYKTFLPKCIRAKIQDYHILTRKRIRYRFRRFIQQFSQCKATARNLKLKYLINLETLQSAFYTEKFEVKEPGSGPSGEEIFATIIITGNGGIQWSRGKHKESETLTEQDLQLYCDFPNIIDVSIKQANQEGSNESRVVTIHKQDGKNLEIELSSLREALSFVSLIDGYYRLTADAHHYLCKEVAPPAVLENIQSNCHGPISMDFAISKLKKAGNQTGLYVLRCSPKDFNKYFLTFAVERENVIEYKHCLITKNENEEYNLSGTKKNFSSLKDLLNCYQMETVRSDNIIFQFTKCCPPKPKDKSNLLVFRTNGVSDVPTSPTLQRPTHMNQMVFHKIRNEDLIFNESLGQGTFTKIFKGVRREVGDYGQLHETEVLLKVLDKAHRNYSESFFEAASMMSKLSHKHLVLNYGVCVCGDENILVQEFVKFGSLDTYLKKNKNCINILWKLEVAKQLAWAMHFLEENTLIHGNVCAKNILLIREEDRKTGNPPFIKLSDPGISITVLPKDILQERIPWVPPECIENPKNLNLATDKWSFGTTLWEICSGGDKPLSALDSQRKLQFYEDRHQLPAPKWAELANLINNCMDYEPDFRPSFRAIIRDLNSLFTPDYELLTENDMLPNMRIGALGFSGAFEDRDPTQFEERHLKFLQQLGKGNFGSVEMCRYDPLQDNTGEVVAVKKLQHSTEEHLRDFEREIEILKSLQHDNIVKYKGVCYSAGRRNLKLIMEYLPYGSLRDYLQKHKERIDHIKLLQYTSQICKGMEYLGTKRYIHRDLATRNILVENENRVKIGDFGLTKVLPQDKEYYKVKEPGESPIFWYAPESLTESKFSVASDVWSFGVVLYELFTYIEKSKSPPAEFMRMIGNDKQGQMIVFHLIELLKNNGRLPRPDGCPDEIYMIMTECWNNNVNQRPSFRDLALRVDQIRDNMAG
Protocol: as §1, §2, §3, §4, §5, §6

[25] = biological target: ERK1 (h) (Homo sapiens (Human), UniProt P27361); assay: Kinase selectivity panel: ERK1 (h); assay type: biochemical; settings: 10 μM in duplicate, read-out: % inhibition of control values
Protocol: as §1, §2, §3, §4, §5, §6

[26] = biological target: IRAK4 (h) (Homo sapiens (Human), UniProt Q9NWZ3); assay: Kinase selectivity panel: IRAK4 (h); assay type: biochemical; settings: 10 μM in duplicate, read-out: % inhibition of control values
Sequence of IRAK4 (h) (Q9NWZ3 whole entry): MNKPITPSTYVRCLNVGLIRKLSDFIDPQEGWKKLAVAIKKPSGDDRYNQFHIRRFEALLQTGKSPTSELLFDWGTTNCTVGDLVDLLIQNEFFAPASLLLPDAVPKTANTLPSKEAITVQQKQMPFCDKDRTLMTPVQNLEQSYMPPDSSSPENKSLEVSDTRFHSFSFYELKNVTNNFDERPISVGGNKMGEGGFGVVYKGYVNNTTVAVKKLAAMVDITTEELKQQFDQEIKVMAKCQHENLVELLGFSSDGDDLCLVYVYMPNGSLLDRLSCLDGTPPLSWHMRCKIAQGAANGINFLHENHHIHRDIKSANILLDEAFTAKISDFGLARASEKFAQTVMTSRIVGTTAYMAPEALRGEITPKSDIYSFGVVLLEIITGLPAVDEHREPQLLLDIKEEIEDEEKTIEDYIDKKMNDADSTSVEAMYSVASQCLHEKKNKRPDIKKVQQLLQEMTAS
Protocol: as §1, §2, §3, §4, §5, §6

[27] = tested on: AMPKalpha; assay: Kinase selectivity panel: AMPKalpha; assay type: biochemical, human; settings: 10 μM in duplicate
Protocol: as §1, §2, §3, §4, §5, §6

Sequence of IGF1R kinase (h) (P08069 31-1367): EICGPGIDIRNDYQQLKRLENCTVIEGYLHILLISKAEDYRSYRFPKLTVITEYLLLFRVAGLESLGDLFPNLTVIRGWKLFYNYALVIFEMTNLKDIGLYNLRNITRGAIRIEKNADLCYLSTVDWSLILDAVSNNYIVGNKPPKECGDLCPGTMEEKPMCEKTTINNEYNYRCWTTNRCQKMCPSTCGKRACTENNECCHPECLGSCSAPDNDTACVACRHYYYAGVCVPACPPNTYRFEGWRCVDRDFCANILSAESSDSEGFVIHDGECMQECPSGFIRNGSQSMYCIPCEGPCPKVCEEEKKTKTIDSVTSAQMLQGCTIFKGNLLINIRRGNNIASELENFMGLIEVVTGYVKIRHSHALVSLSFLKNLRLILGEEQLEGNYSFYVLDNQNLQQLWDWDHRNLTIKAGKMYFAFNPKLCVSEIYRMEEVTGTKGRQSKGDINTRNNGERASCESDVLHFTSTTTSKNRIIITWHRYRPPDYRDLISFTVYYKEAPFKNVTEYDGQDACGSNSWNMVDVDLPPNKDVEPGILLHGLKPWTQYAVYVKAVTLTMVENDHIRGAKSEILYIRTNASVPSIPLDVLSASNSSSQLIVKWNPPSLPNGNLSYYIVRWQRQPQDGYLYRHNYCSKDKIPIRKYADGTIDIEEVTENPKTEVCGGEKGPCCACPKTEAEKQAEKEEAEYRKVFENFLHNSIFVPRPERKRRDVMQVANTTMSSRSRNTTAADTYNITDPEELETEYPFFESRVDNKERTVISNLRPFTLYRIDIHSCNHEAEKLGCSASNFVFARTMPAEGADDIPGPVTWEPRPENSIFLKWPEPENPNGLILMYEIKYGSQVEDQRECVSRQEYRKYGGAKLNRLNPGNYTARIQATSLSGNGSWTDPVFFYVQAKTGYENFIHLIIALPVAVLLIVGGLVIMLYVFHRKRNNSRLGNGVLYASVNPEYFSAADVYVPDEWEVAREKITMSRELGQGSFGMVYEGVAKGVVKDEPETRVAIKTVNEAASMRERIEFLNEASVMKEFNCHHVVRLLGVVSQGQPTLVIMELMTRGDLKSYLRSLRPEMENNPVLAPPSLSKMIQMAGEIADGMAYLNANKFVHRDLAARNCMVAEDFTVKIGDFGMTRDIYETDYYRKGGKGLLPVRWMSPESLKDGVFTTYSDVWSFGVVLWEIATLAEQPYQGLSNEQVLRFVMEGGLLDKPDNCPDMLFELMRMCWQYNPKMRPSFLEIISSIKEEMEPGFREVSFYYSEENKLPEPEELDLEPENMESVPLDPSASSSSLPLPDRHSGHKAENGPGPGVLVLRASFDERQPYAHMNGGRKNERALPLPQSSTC

| Compound | inhibition at 10 µM [1] [%] | inhibition at 10 µM [2] [%] | inhibition at 10 µM [3] [%] | inhibition at 10 µM [4] [%] | inhibition at 10 µM [5] [%] | inhibition at 10 µM [6] [%] | inhibition at 10 µM [7] [%] | inhibition at 10 µM [8] [%] | inhibition at 10 µM [9] [%] | inhibition at 10 µM [10] [%] | inhibition at 10 µM [11] [%] | inhibition at 10 µM [12] [%] | inhibition at 10 µM [13] [%] | inhibition at 10 µM [14] [%] | inhibition at 10 µM [15] [%] | inhibition at 10 µM [16] [%] | inhibition at 10 µM [17] [%] | inhibition at 10 µM [18] [%] | inhibition at 10 µM [19] [%] | inhibition at 10 µM [20] [%] | also measured |
| --- | --- | --- | --- | --- | --- | --- | --- | --- | --- | --- | --- | --- | --- | --- | --- | --- | --- | --- | --- | --- | --- |
| COc1ccc2[nH]nc(C(=O)NCC3CCN(CCC(=O)O)CC3)c2c1 [Compound 3] | 0 | 0 | 2 | 0 | 0 | 0 | 3 | 3 | 0 | 34 | 0 | 0 | 0 | 0 | 0 | 0 | 15 | 0 | 4 | 3 | inhibition at 10 µM [21]: 0%; inhibition at 10 µM [22]: 8%; inhibition at 10 µM [23]: 89%; inhibition at 10 µM [24]: 0%; inhibition at 10 µM [25]: 19%; inhibition at 10 µM [26]: 0% |
| COCCN1CCC(CNC(=O)c2n[nH]c3ccc(-c4cccc(F)c4F)cc23)CC1 [Compound 8, 5-(2,3-difluorophenyl)-N-{[1-(2-methoxyethyl)piperidin-4-yl]methyl}-1H-indazole-3-carboxamide] | 3 | 79 | 0 | 0 | 0 | 14 | 72 | 47 | 17 | 74 | 3 | 6 | 0 | 2 | 3 | 1 | 4 | 84 | 10 | 4 | % inhibition of control values [27]: 68%; inhibition at 10 µM [21]: 2%; inhibition at 10 µM [22]: 80%; inhibition at 10 µM [24]: 23%; inhibition at 10 µM [25]: 66%; inhibition at 10 µM [26]: 0% |
